Data published in the supplement of paper PMC11061612.

How the values were obtained:
Paclitaxel = compound: CC(=O)O[C@H]1C(=O)[C@@]2(C)[C@H]([C@H](OC(=O)c3ccccc3)[C@]3(O)C[C@H](OC(=O)[C@H](O)[C@@H](NC(=O)c4ccccc4)c4ccccc4)C(C)=C1C3(C)C)[C@]1(OC(C)=O)CO[C@@H]1C[C@@H]2O [Paclitaxel]; settings: max 3 µM
Procedure, shortened: (§1)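 Following 24 hours at 37°C and 5% CO2, cancer cell lines in 1536-well plates with 7.5 μl DMEM/F12 or RPMI and 10% FBS were dosed for 72 hours, final DMSO typically being 0.2%. CellTiter-Glo 2.0 luminescence, scaled between blank-well and DMSO-well means, gave the viability readout. Dose responses were fitted to a two-parameter logistic curve with a non-linear mixed effects model, and the single-agent IC50 was derived from this fit.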

Crizotinib = compound: C[C@@H](Oc1cc(-c2cnn(C3CCNCC3)c2)cnc1N)c1c(Cl)ccc(F)c1Cl [Crizotinib]; settings: max 10 µM
Procedure, shortened: as §1

AZD1390 = compound: CC(C)n1c(=O)n(C)c2cnc3cc(F)c(-c4ccc(OCCCN5CCCCC5)nc4)cc3c21 [AZD1390]; settings: max 0.3 µM
Procedure, shortened: as §1

AZD2811 = compound: CCN(CCO)CCCOc1ccc2c(Nc3cc(CC(=O)Nc4cccc(F)c4)[nH]n3)ncnc2c1 [AZD2811]; settings: max 1 µM
Procedure, shortened: as §1

AZD0156 = compound: CN(C)CCCOc1ccc(-c2ccc3ncc4c(c3c2)n(C2CCOCC2)c(=O)n4C)cn1 [AZD0156]; settings: max 3 µM
Procedure, shortened: as §1

Selumetinib = compound: Cn1cnc2c(F)c(Nc3ccc(Br)cc3Cl)c(C(=O)NOCCO)cc21 [Selumetinib]; settings: max 10 µM
Procedure, shortened: as §1

Prexasertib = compound: COc1cccc(OCCCN)c1-c1cc(Nc2cnc(C#N)cn2)n[nH]1 [Prexasertib]; settings: max 1 µM
Procedure, shortened: as §1

Taselisib = compound: Cc1nc(-c2cn3c(n2)-c2ccc(-c4cnn(C(C)(C)C(N)=O)c4)cc2OCC3)n(C(C)C)n1 [Taselisib]; settings: max 10 µM
Procedure, shortened: as §1

Venetoclax = compound: CC1(C)CCC(CN2CCN(c3ccc(C(=O)NS(=O)(=O)c4ccc(NCC5CCOCC5)c([N+](=O)[O-])c4)c(Oc4cnc5[nH]ccc5c4)c3)CC2)=C(c2ccc(Cl)cc2)C1 [Venetoclax]; settings: max 1 µM
Procedure, shortened: as §1

AZD4320 = compound: CN(CC[C@H](CSC1=CC=CC=C1)NC2=C(C=C(C=C2)S(=O)(=O)NC(=O)C3=CC=C(C=C3)N4CCC(CC4)[C@H](C5=CC=CC=C5C6=CC=C(C=C6)Cl)O)S(=O)(=O)C(F)(F)F)CCO [AZD4320]; settings: max 1 µM
Procedure, shortened: as §1

MK-2206 = compound: NC1(c2ccc(-c3nc4ccn5c(=O)[nH]nc5c4cc3-c3ccccc3)cc2)CCC1 [MK-2206]; settings: max 10 µM
Procedure, shortened: as §1

Savolitinib = compound: C[C@@H](c1ccc2nccn2c1)n1nnc2ncc(-c3cnn(C)c3)nc21 [Savolitinib]; settings: max 1 µM
Procedure, shortened: as §1

SG3199 = compound: CC1=CN2[C@@H](C1)C=NC3=CC(=C(C=C3C2=O)OC)OCCCCCOC4=C(C=C5C(=C4)N=C[C@@H]6CC(=CN6C5=O)C)OC [SG3199]; settings: max 0.001 µM
Procedure, shortened: as §1

AZD8186 = compound: C[C@@H](Nc1cc(F)cc(F)c1)c1cc(C(=O)N(C)C)cc2c(=O)cc(N3CCOCC3)oc12 [AZD8186]; settings: max 10 µM
Procedure, shortened: as §1

AZD5153 = compound: COc1nnc2ccc(N3CCC(c4ccc(OCCN5CCN(C)C(=O)[C@H]5C)cc4)CC3)nn12 [AZD5153]; settings: max 1 µM
Procedure, shortened: as §1

AZD1775 = compound: C=CCn1c(=O)c2cnc(Nc3ccc(N4CCN(C)CC4)cc3)nc2n1-c1cccc(C(C)(C)O)n1 [AZD1775]; settings: max 3 µM
Procedure, shortened: as §1

Lapatinib = compound: CS(=O)(=O)CCNCc1ccc(-c2ccc3ncnc(Nc4ccc(OCc5cccc(F)c5)c(Cl)c4)c3c2)o1 [Lapatinib]; settings: max 10 µM
Procedure, shortened: as §1

Etoposide = compound: COc1cc([C@@H]2c3cc4c(cc3[C@@H](O[C@@H]3O[C@@H]5CO[C@@H](C)O[C@H]5[C@H](O)[C@H]3O)[C@H]3COC(=O)[C@H]23)OCO4)cc(OC)c1O [Etoposide]; settings: max 10 µM
Procedure, shortened: as §1

[1] = compound: O=C(Nc1ccc2[nH]nc(-c3ccncc3)c2c1)[C@@H]1CCN(CC(=O)N2CCN(c3ccc(-c4ncccn4)cc3)CC2)C1; settings: max 5 µM
Procedure, shortened: as §1

SN-38 = compound: CCc1c2c(nc3ccc(O)cc13)-c1cc3c(c(=O)n1C2)COC(=O)[C@]3(O)CC [SN-38]; settings: max 0.3 µM
Procedure, shortened: as §1

Carboplatin = compound: C1CC(C1)(C(=O)[O-])C(=O)[O-].N.N.[Pt+2] [Carboplatin]; settings: max 10 µM
Procedure, shortened: as §1

Trametinib = compound: CC(=O)Nc1cccc(-n2c(=O)n(C3CC3)c(=O)c3c(Nc4ccc(I)cc4F)n(C)c(=O)c(C)c32)c1 [Trametinib]; settings: max 1 µM
Procedure, shortened: as §1

Doxorubicin = compound: COc1cccc2c1C(=O)c1c(O)c3c(c(O)c1C2=O)C[C@@](O)(C(=O)CO)C[C@@H]3O[C@H]1C[C@H](N)[C@H](O)[C@H](C)O1 [Doxorubicin]; settings: max 1 µM
Procedure, shortened: as §1

Gemcitabine = compound: Nc1ccn([C@@H]2O[C@H](CO)[C@@H](O)C2(F)F)c(=O)n1 [Gemcitabine]; settings: max 0.3 µM
Procedure, shortened: as §1

AZD5363 = compound: C1CN(CCC1(C(=O)N[C@@H](CCO)C2=CC=C(C=C2)Cl)N)C3=NC=NC4=C3C=CN4 [AZD5363]; settings: max 10 µM
Procedure, shortened: as §1

5-Fluorouracil = compound: O=c1[nH]cc(F)c(=O)[nH]1 [5-Fluorouracil]; settings: max 20 µM
Procedure, shortened: as §1

Dasatinib = compound: CC1=C(C(=CC=C1)Cl)NC(=O)C2=CN=C(S2)NC3=CC(=NC(=N3)C)N4CCN(CC4)CCO [Dasatinib]; settings: max 2 µM
Procedure, shortened: as §1

SRA737 = compound: N#Cc1cnc(Nc2cc(NC[C@H]3CNCCO3)c(C(F)(F)F)cn2)cn1 [SRA737]; settings: max 10 µM
Procedure, shortened: as §1

Palbociclib = compound: CC(=O)c1c(C)c2cnc(Nc3ccc(N4CCNCC4)cn3)nc2n(C2CCCC2)c1=O [Palbociclib]; settings: max 10 µM
Procedure, shortened: as §1

Gefitinib = compound: COc1cc2ncnc(Nc3ccc(F)c(Cl)c3)c2cc1OCCCN1CCOCC1 [Gefitinib]; settings: max 10 µM
Procedure, shortened: as §1

AZD5991 = compound: Cc1c2c(nn1C)CSCc1cc(n(C)n1)CSc1cc(c3ccccc3c1)OCCCc1c(C(=O)O)n(C)c3c-2c(Cl)ccc13 [AZD5991]; settings: max 1 µM
Procedure, shortened: as §1

Olaparib = compound: O=C(c1cc(Cc2n[nH]c(=O)c3ccccc23)ccc1F)N1CCN(C(=O)C2CC2)CC1 [Olaparib]; settings: max 10 µM
Procedure, shortened: as §1

Alisertib = compound: COc1cc(Nc2ncc3c(n2)-c2ccc(Cl)cc2C(c2c(F)cccc2OC)=NC3)ccc1C(=O)O [Alisertib]; settings: max 10 µM
Procedure, shortened: as §1

AZD6738 = compound: C[C@@H]1COCCN1C2=NC(=NC(=C2)C3(CC3)[S@](=N)(=O)C)C4=C5C=CNC5=NC=C4 [AZD6738]; settings: max 10 µM
Procedure, shortened: as §1

AZD7648 = compound: Cc1cc2ncnn2cc1Nc1ncc2c(n1)n(C1CCOCC1)c(=O)n2C [AZD7648]; settings: max 10 µM
Procedure, shortened: as §1

| Cell Line | IC50, cell viability 72 h (Paclitaxel) | IC50, cell viability 72 h (Crizotinib) | IC50, cell viability 72 h (AZD1390) | IC50, cell viability 72 h (AZD2811) | IC50, cell viability 72 h (AZD0156) | IC50, cell viability 72 h (Selumetinib) | IC50, cell viability 72 h (Prexasertib) | IC50, cell viability 72 h (Taselisib) | IC50, cell viability 72 h (Venetoclax) | IC50, cell viability 72 h (AZD4320) | IC50, cell viability 72 h (MK-2206) | IC50, cell viability 72 h (Savolitinib) | IC50, cell viability 72 h (SG3199) | IC50, cell viability 72 h (AZD8186) | IC50, cell viability 72 h (AZD5153) | IC50, cell viability 72 h (AZD1775) | IC50, cell viability 72 h (Lapatinib) | IC50, cell viability 72 h (Etoposide) | IC50, cell viability 72 h [1] | IC50, cell viability 72 h (SN-38) | IC50, cell viability 72 h (Carboplatin) | IC50, cell viability 72 h (Trametinib) | IC50, cell viability 72 h (Doxorubicin) | IC50, cell viability 72 h (Gemcitabine) | IC50, cell viability 72 h (AZD5363) | IC50, cell viability 72 h (5-Fluorouracil) | IC50, cell viability 72 h (Dasatinib) | IC50, cell viability 72 h (SRA737) | IC50, cell viability 72 h (Palbociclib) | IC50, cell viability 72 h (Gefitinib) | IC50, cell viability 72 h (AZD5991) | IC50, cell viability 72 h (Olaparib) | IC50, cell viability 72 h (Alisertib) | IC50, cell viability 72 h (AZD6738) | IC50, cell viability 72 h (AZD7648) |
| --- | --- | --- | --- | --- | --- | --- | --- | --- | --- | --- | --- | --- | --- | --- | --- | --- | --- | --- | --- | --- | --- | --- | --- | --- | --- | --- | --- | --- | --- | --- | --- | --- | --- | --- | --- |
| NCI-H2009 (Lung Adenocarcinoma) | 0.162 µM | > 10 µM | > 0.3 µM | > 1 µM | > 3 µM | > 10 µM | 0.846 µM | 6.38 µM | > 1 µM | > 1 µM | > 10 µM | > 1 µM | > 0.001 µM | > 10 µM | > 1 µM | 1.02 µM | > 10 µM | > 10 µM | > 5 µM | 0.19 µM | > 10 µM | 0.407 µM | > 1 µM | > 0.3 µM | > 10 µM | > 20 µM | > 2 µM | > 10 µM | > 10 µM | > 10 µM | > 1 µM | > 10 µM | 8.1 µM | > 10 µM | > 10 µM |
| A375 (Melanoma) | 0.042 µM | > 10 µM | > 0.3 µM | > 1 µM | > 3 µM | 0.693 µM | 0.21 µM | > 10 µM | > 1 µM | > 1 µM | > 10 µM | > 1 µM | > 0.001 µM | > 10 µM | > 1 µM | 0.813 µM | > 10 µM | 2.61 µM | 0.538 µM | 0.0074 µM | > 10 µM | 0.0126 µM | 0.265 µM | 0.00974 µM | > 10 µM | > 20 µM | > 2 µM | > 10 µM | > 10 µM | > 10 µM | > 1 µM | > 10 µM | 8.15 µM | 9.24 µM | > 10 µM |
| SBC-3 (Small Cell Lung Carcinoma) | 0.0038 µM | 3.45 µM | > 0.3 µM | 0.636 µM | > 3 µM | > 10 µM | 0.136 µM | 2.58 µM | > 1 µM | > 1 µM | > 10 µM | > 1 µM | > 0.001 µM | > 10 µM | 0.0646 µM | 0.822 µM | > 10 µM | 0.313 µM | > 5 µM | 0.00225 µM | > 10 µM | > 1 µM | 0.0717 µM | 0.0147 µM | > 10 µM | 4.54 µM | > 2 µM | > 10 µM | 4.82 µM | > 10 µM | > 1 µM | > 10 µM | 0.421 µM | 5.85 µM | > 10 µM |
| CAL-85-1 (Breast Carcinoma) | 0.0667 µM | > 10 µM | > 0.3 µM | > 1 µM | > 3 µM | > 10 µM | > 1 µM | 6.29 µM | > 1 µM | > 1 µM | > 10 µM | > 1 µM | > 0.001 µM | > 10 µM | 0.534 µM | 2.04 µM | > 10 µM | > 10 µM | > 5 µM | 0.0965 µM | > 10 µM | 0.351 µM | > 1 µM | 0.246 µM | > 10 µM | > 20 µM | 1.21 µM | > 10 µM | > 10 µM | > 10 µM | > 1 µM | > 10 µM | > 10 µM | > 10 µM | > 10 µM |
| RPMI-8402 (T-Lymphoblastic Leukemia) | 0.00686 µM | 1.63 µM | > 0.3 µM | 0.0333 µM | > 3 µM | > 10 µM | 0.00584 µM | 1.03 µM | > 1 µM | 0.247 µM | 1.15 µM | > 1 µM | > 0.001 µM | 5.45 µM | 0.0631 µM | 0.183 µM | 4.4 µM | 0.158 µM | 4.09 µM | 0.00243 µM | > 10 µM | > 1 µM | 0.0681 µM | 0.0235 µM | 2.5 µM | 9.93 µM | > 2 µM | 1.32 µM | 0.3 µM | 9.05 µM | 0.504 µM | > 10 µM | 0.214 µM | 1.3 µM | > 10 µM |
